Seven molecules from PubChem BioAssay (NCI) can be followed below.

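1) Cells in 96-well plates. 2) Compound, 48 h, 5 concentrations. 3) Linear interpolation between surrounding doses. 4) Unreached endpoint = highest concentration. GI50: concentration for 50% inhibition of growth. TGI is the concentration that stops growth completely.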

Some test systems named below: SW-620 colon; RPMI-8226 leukemia; HL-60(TB) leukemia; SNB-19 CNS; A498 renal; HCC-2998 colon; K-562 leukemia; HS 578T breast; UO-31 renal; OVCAR-3 ovarian.
What all share (assay): inhibition of tumour cell growth, NCI panel, 48 h

As to `Oc1c(I)cc(-c2nc3ccccc3s2)cc1CN(Cc1ccccn1)Cc1ccccn1`, the GI50 was 0.402 µM in the test with SW-620 colon; 385 nM in the test with RPMI-8226 leukemia; 323 nM in the test with HL-60(TB) leukemia; 0.387 µM in the test with SNB-19 CNS; 484 nM with A498 renal; 430 nM with HCC-2998 colon. For the same molecule, the GI50 in the test on K-562 leukemia is 385 nM; with HS 578T breast, 1610 nM; in the test on UO-31 renal, 0.272 µM; with OVCAR-3 ovarian it was 534 nM. The TGI was 3.32 µM in the test on SW-620 colon; 3.03 µM with RPMI-8226 leukemia; > 100 µM in the test on HL-60(TB) leukemia; > 100 µM in the test on SNB-19 CNS; 4.81 µM in the test on A498 renal; 43.9 µM with HCC-2998 colon. For the same molecule, the TGI in the test with K-562 leukemia is > 100 µM; with HS 578T breast it was 93 µM; with UO-31 renal it was 2.35 µM; in the test with OVCAR-3 ovarian, 11.7 µM.

With `O=C(Nc1cccc(O)c1)c1cccc(NC2=C(Cl)C(=O)N(Cc3ccccc3)C2=O)c1`, the GI50 in the test on SW-620 colon was 6.53 µM; in the test on RPMI-8226 leukemia it was 1490 nM; with HL-60(TB) leukemia, 4880 nM; with SNB-19 CNS, 18.8 µM; in the test on A498 renal, 13200 nM; in the test with HCC-2998 colon it was 15800 nM. For the same molecule, the GI50 with K-562 leukemia is 1510 nM; in the test on HS 578T breast, 12700 nM; with UO-31 renal, 6.61 µM; in the test on OVCAR-3 ovarian, 8160 nM. In addition, the TGI in the test on SW-620 colon was 29.9 µM; in the test on RPMI-8226 leukemia, 27 µM; in the test on HL-60(TB) leukemia, 27.9 µM; in the test with SNB-19 CNS it was 41.4 µM; with A498 renal, 28.9 µM; in the test with HCC-2998 colon it was 29.4 µM. For the same molecule, the TGI with K-562 leukemia turned out to be 28.4 µM; with HS 578T breast it was 43.5 µM; in the test on UO-31 renal, 21.7 µM; with OVCAR-3 ovarian it was 23 µM.

In the case of `NC(=S)N/N=C\c1nccc2c(N)cccc12`, the GI50 was 0.476 µM in the test on SW-620 colon; 223 nM in the test with RPMI-8226 leukemia; 181 nM in the test on HL-60(TB) leukemia; 0.557 µM in the test with SNB-19 CNS; 172 nM with A498 renal; 374 nM with HCC-2998 colon. Also, the GI50 in the test on K-562 leukemia is 497 nM; in the test on HS 578T breast, 1680 nM; in the test with UO-31 renal, 0.298 µM; in the test on OVCAR-3 ovarian, 306 nM. The TGI was > 100 µM in the test with SW-620 colon; > 82.8 µM in the test with RPMI-8226 leukemia; 11.7 µM in the test with HL-60(TB) leukemia; > 100 µM with SNB-19 CNS; 1.02 µM in the test on A498 renal; > 100 µM in the test with HCC-2998 colon. Besides, the TGI is > 100 µM in the test with K-562 leukemia, > 100 µM with HS 578T breast, 1.24 µM with UO-31 renal and > 100 µM with OVCAR-3 ovarian.

As for `O=S(=O)(NCCNc1cc(-c2cn(-c3ccccc3)nc2-c2cccc(O)c2)ccn1)c1ccc(Cl)cc1`, the GI50 was 3.69 µM in the test with SW-620 colon; 2590 nM with RPMI-8226 leukemia; 2420 nM in the test on HL-60(TB) leukemia; 4.26 µM with SNB-19 CNS; 2330 nM in the test with A498 renal; 1990 nM in the test on HCC-2998 colon. In addition, the GI50 is 1980 nM in the test on K-562 leukemia, 3000 nM with HS 578T breast, 2.92 µM with UO-31 renal and 2060 nM in the test on OVCAR-3 ovarian. Further, the TGI in the test on SW-620 colon turned out to be 18.9 µM; with RPMI-8226 leukemia, 7.75 µM; in the test with HL-60(TB) leukemia, 5.98 µM; in the test with SNB-19 CNS it was 63.7 µM; in the test with A498 renal it was 9.52 µM; with HCC-2998 colon, 4.14 µM. For the same molecule, the TGI in the test on K-562 leukemia was 5.4 µM; in the test with HS 578T breast it was > 100 µM; in the test on UO-31 renal it was 12.1 µM; with OVCAR-3 ovarian, 5.05 µM.

As for `C/C1=C\C/C=C(\C)[C@H]2CC(CC/C(C)=C/CC1)[C@](C)(C=O)O2`, the GI50 with SW-620 colon was 51.1 µM; in the test on RPMI-8226 leukemia it was 27100 nM; with HL-60(TB) leukemia, 25600 nM; with SNB-19 CNS it was > 100 µM; in the test on A498 renal it was 92200 nM; in the test on HCC-2998 colon, 49800 nM. Moreover, the GI50 in the test on K-562 leukemia is 54800 nM; in the test on HS 578T breast, > 100000 nM; in the test on UO-31 renal, > 100 µM; in the test with OVCAR-3 ovarian it was 76400 nM. Further, the TGI in the test on SW-620 colon is > 100 µM; in the test with RPMI-8226 leukemia it was 76.8 µM; in the test with HL-60(TB) leukemia it was 81.2 µM; with SNB-19 CNS, > 100 µM; in the test on A498 renal, > 100 µM; with HCC-2998 colon, > 100 µM. In addition, the TGI in the test on K-562 leukemia, in the test on HS 578T breast, with UO-31 renal and in the test with OVCAR-3 ovarian was > 100 µM throughout.

Take `COc1ccc(CC(NC(=O)[C@H](C)NC(=O)CN2CCOCC2)C(=O)N[C@@H](Cc2ccccc2)C(=O)[C@@]2(C)CO2)cc1` (stereo partly drawn): the GI50 with SW-620 colon was 0.216 µM; in the test on RPMI-8226 leukemia it was 56.5 nM; in the test with HL-60(TB) leukemia it was 157 nM; in the test with SNB-19 CNS, 0.651 µM; in the test with A498 renal it was 224 nM; in the test with HCC-2998 colon, 174 nM. Also, the GI50 in the test on K-562 leukemia was 268 nM; in the test on HS 578T breast it was 286 nM; in the test on UO-31 renal, 3.2 µM; in the test on OVCAR-3 ovarian it was 198 nM. Also, the TGI is 0.734 µM with SW-620 colon; > 100 µM in the test with RPMI-8226 leukemia; > 100 µM in the test on SNB-19 CNS; 0.893 µM in the test on A498 renal; 0.324 µM in the test with HCC-2998 colon; 2.12 µM in the test on HS 578T breast. Moreover, the TGI in the test with UO-31 renal worked out at 15.2 µM; in the test on OVCAR-3 ovarian, 0.421 µM.

Take `COc1cc(NCc2ccccc2O)c2ncccc2c1`: the GI50 was 32.2 µM in the test on SW-620 colon; 11800 nM in the test with RPMI-8226 leukemia; 18500 nM in the test with HL-60(TB) leukemia; 31.8 µM with SNB-19 CNS; 13200 nM in the test with A498 renal; 42600 nM with HCC-2998 colon. Besides, the GI50 in the test on K-562 leukemia is 17200 nM; in the test with HS 578T breast it was 24200 nM; with UO-31 renal it was 7.17 µM; in the test on OVCAR-3 ovarian, 20600 nM. The TGI in the test with SW-620 colon was > 100 µM; in the test on RPMI-8226 leukemia, 79.5 µM; in the test with HL-60(TB) leukemia it was 57 µM; with SNB-19 CNS, > 100 µM; in the test on A498 renal, 60.5 µM; in the test with HCC-2998 colon it was > 100 µM. Moreover, the TGI in the test with K-562 leukemia is > 100 µM; in the test on HS 578T breast, > 100 µM; in the test on UO-31 renal it was 75.8 µM; in the test with OVCAR-3 ovarian, 84.5 µM.
